# Measurements from patent publication US8148070B2, “Genetic polymorphisms associated with coronary events and drug response, methods of detection and uses thereof” (Celera Corporation, priority 2007, dated 2012).
# System: CARE patients
# Experiment: CARE trial: pravastatin vs placebo, recurrent MI in subgroups defined by KIF6 (and neighbouring SNP) genotype
# Format: in vivo, human
# Settings: for HR, Unadjusted (recurrent MI, pravastatin vs placebo): placebo = ref; for OR for minor hom / OR for carrier (Min + Het) / OR for Het / OR for major hom: risk of recurrent MI
# Excerpt: In order to identify genetic markers associated with CHD (particularly MI, including recurrent MI) or the effect of statin treatment on CHD, samples were genotyped in two clinical trials: the Cholesterol and Recurrent Events (CARE) study (a randomized multicentral double-blinded trial on secondary prevention of MI with pravastatin (Pravachol®); Sacks et al., Am. J. Cardiol. 68: 1436-1446 [1991]), and the West of Scotland Coronary Prevention Study (WOSCOPS) study (a randomized multicentral double-blinded trial on primary prevention of CHD with pravastatin (Pravachol®); Shepherd et al., N Eng J Med 333 (20), pp. 1301-7, Nov. 16, 1995; Packard et al., N Eng J Med 343 (16), pp. 1148-55, Oct. 19, 2000).
# A well-documented MI was one of the enrollment criteria for entry into the CARE study. Patients were enrolled in the CARE trial from 80 participating study centers. […] Patients were randomized to receive either 40 mg of pravastatin once daily or a matching placebo. The primary endpoint of the trial was death from CHD or nonfatal MI and the median duration of follow-up was 5.0 years (range, 4.0 to 6.2 years). For this genetic study of CARE, a composite endpoint comprised of fatal or nonfatal recurrent MI was used.
# For genotyping SNPs in CARE patient samples, DNA was extracted from blood samples using conventional DNA extraction methods such as the QIAamp kit from Qiagen. Genotypes were obtained by a method similar to that described by Iannone (M. A. Iannone et al., Cytometry 39(2):131-140 [Feb. 1, 2000]; also described in section “SNP DETECTION REAGENTS,” supra). Briefly, target DNA was amplified by multiplex PCR, the amplified product was submitted to a multiplex oligo ligation assay (OLA), the specific ligated products were hybridized to unique universal “ZIP code” oligomer sequences covalently attached to Luminex xMAP® Multi-Analyte COOH Microspheres, and these hybridization products/microspheres were detected in a rapid automated multiplex system (Luminex 100 instrument).
# In analyzing the CARE patients, statistical analysis was performed with SAS version 9. Cox proportional hazard models (Wald tests) were used in CARE to assess the association of genotype with both the risk of incident MI in the placebo arm and the effect of pravastatin on MI compared to placebo in subgroups defined by genotypes. In analyzing the WOSCOPS patients, a conditional logistic regression model was used in WOSCOPS given that the controls had been previously matched to the cases. The column entitled “On-trial MI” lists the number of patients who suffered a recurrent MI during the clinical trial period.
# HR stands for Hazard Ratio, which is a concept similar to Odds Ratio (OR). The HR in event-free survival analysis is the effect of an explanatory variable on the hazard or risk of an event. For examples, it describes the likelihood of developing MI based on comparison of rate of coronary events between carriers of the certain allele and noncarriers; therefore, HR=1.5 would mean that carriers of the certain allele have 50% higher risk of coronary events during the study follow up than non-carriers. HR can also describe the effect of statin therapy on coronary events based on comparison of rate of coronary events between patient treated with statin and patient treated with placebo (or other statin) in subgroups defined by SNP genotype; therefore, HR=0.5 would mean that, for example, carriers of the certain allele, had 50% reduction of coronary events by statin therapy as compared to placebo. In Table 6, p interaction values were calculated. An interaction (or effect modification) is formed when a third variable modifies the relation between an exposure and outcome. […] Genotype and drug interaction is present when the effect of statins (incidence rate of disease in statin-treated group, as compared to placebo) differs in patients with different genotypes. The hCV3054799 risk allele predicted risk of MI in CARE and was associated with odds of CHD in WOSCOPS. […]
compound,measurement,setting,value
"CC[C@H](C)C(=O)O[C@H]1C[C@H](O)C=C2C=C[C@H](C)[C@H](CC[C@@H](O)C[C@@H](O)CC(=O)O)[C@H]21 [Pravastatin, pravastatin]","HR, Adjusted (recurrent MI, pravastatin vs placebo)","AA (noncarriers), adjusted for conventional risk factors",0.80
same,On-trial MI,"AA, of 554 patients in the pravastatin arm",39 number of patients
same,"HR, Adjusted (recurrent MI, pravastatin vs placebo)","GG + GA (719Arg carriers), adjusted for age, smoking, hypertension, diabetes, BMI, LDL-C, HDL-C",0.63
same,On-trial MI,"GG + GA, of 810 patients in the pravastatin arm",64 number of patients
same,"HR, Unadjusted (recurrent MI, pravastatin vs placebo)",KIF6 Trp719Arg AA (noncarriers),0.86
same,"HR, Unadjusted (recurrent MI, pravastatin vs placebo)","KIF6 Trp719Arg GG + GA (719Arg carriers), 40 mg pravastatin once daily",0.63
same,reduction of relative risk of recurrent MI,"carriers of the 719Arg risk allele, pravastatin vs placebo",37%
same,risk reduction (coronary events),"noncarriers, pravastatin vs placebo, insignificant",20%
same,"OR, Effect of Pravastatin on MI and CHD","pravastatin vs placebo, hCV3054808 genotype AA",1.04
same,"OR, Effect of Pravastatin on MI and CHD","pravastatin vs placebo, hCV3054808 genotype AC",0.50
same,"OR, Effect of Pravastatin on MI and CHD","pravastatin vs placebo, hCV3054808 genotype CC",1.01
same,"OR, Effect of Pravastatin on MI and CHD","pravastatin vs placebo, hCV3054813 genotype CC",0.98
same,"OR, Effect of Pravastatin on MI and CHD","pravastatin vs placebo, hCV3054813 genotype CT",0.45
same,"OR, Effect of Pravastatin on MI and CHD","pravastatin vs placebo, hCV3054813 genotype TT",1.06
same,"OR, Effect of Pravastatin on MI and CHD","pravastatin vs placebo, hCV29992177 genotype AA",0.71
same,"OR, Effect of Pravastatin on MI and CHD","pravastatin vs placebo, hCV29992177 genotype GA",0.57
same,"OR, Effect of Pravastatin on MI and CHD","pravastatin vs placebo, hCV29992177 genotype GG",1.88
same,"OR, Effect of Pravastatin on MI and CHD","pravastatin vs placebo, hCV30225864 genotype CC",0.79
same,"OR, Effect of Pravastatin on MI and CHD","pravastatin vs placebo, hCV30225864 genotype CT",0.63
same,"OR, Effect of Pravastatin on MI and CHD","pravastatin vs placebo, hCV30225864 genotype TT",0.73
same,OR for minor hom,"pravastatin vs placebo, hCV792699 CC minor homozygotes",0.8127
same,OR for carrier (Min + Het),"pravastatin vs placebo, hCV792699 CC+CT carriers of minor allele",0.7089
same,OR for Het,"pravastatin vs placebo, hCV792699 CT heterozygotes",0.6534
same,OR for major hom,"pravastatin vs placebo, hCV792699 TT major homozygotes",0.8085
same,OR for major hom,"pravastatin vs placebo, hCV1650850 CC major homozygotes",0.7381
same,OR for Het,"pravastatin vs placebo, hCV1650850 GC heterozygotes",1.7143
same,OR for carrier (Min + Het),"pravastatin vs placebo, hCV1650850 GG+GC carriers of minor allele",1.7143
same,OR for minor hom,"pravastatin vs placebo, hCV3054766 AA minor homozygotes",0.4856
same,OR for carrier (Min + Het),"pravastatin vs placebo, hCV3054766 AA+AC carriers of minor allele",0.6695
same,OR for Het,"pravastatin vs placebo, hCV3054766 AC heterozygotes",0.7705
same,OR for major hom,"pravastatin vs placebo, hCV3054766 CC major homozygotes",0.9847
same,OR for minor hom,"pravastatin vs placebo, hCV3054789 AA minor homozygotes",1.0873
same,OR for carrier (Min + Het),"pravastatin vs placebo, hCV3054789 AA+AT carriers of minor allele",0.8227
same,OR for Het,"pravastatin vs placebo, hCV3054789 AT heterozygotes",0.7597
same,OR for major hom,"pravastatin vs placebo, hCV3054789 TT major homozygotes",0.6567
same,OR for major hom,"pravastatin vs placebo, hCV3054799 AA major homozygotes",0.8639
same,OR for Het,"pravastatin vs placebo, hCV3054799 GA heterozygotes",0.5818
same,OR for minor hom,"pravastatin vs placebo, hCV3054799 GG minor homozygotes",0.9215
same,OR for carrier (Min + Het),"pravastatin vs placebo, hCV3054799 GG+GA carriers of minor allele",0.6442
same,OR for major hom,"pravastatin vs placebo, hCV3054805 CC major homozygotes",0.9323
same,OR for Het,"pravastatin vs placebo, hCV3054805 GC heterozygotes",0.5933
same,OR for minor hom,"pravastatin vs placebo, hCV3054805 GG minor homozygotes",0.9317
same,OR for carrier (Min + Het),"pravastatin vs placebo, hCV3054805 GG+GC carriers of minor allele",0.6653
same,OR for minor hom,"pravastatin vs placebo, hCV3054808 AA minor homozygotes",1.037
same,OR for carrier (Min + Het),"pravastatin vs placebo, hCV3054808 AA+AC carriers of minor allele",0.6257
same,OR for Het,"pravastatin vs placebo, hCV3054808 AC heterozygotes",0.5292
same,OR for major hom,"pravastatin vs placebo, hCV3054808 CC major homozygotes",1.0056
same,OR for minor hom,"pravastatin vs placebo, hCV3054822 AA minor homozygotes",0.852
same,OR for carrier (Min + Het),"pravastatin vs placebo, hCV3054822 AA+AT carriers of minor allele",0.5778
same,OR for Het,"pravastatin vs placebo, hCV3054822 AT heterozygotes",0.5213
same,OR for major hom,"pravastatin vs placebo, hCV3054822 TT major homozygotes",0.9897
same,OR for minor hom,"pravastatin vs placebo, hCV3054829 CC minor homozygotes",0.9021
same,OR for carrier (Min + Het),"pravastatin vs placebo, hCV3054829 CC+CT carriers of minor allele",0.8052
same,OR for Het,"pravastatin vs placebo, hCV3054829 CT heterozygotes",0.783
same,OR for major hom,"pravastatin vs placebo, hCV3054829 TT major homozygotes",0.6064
same,OR for carrier (Min + Het),"pravastatin vs placebo, hCV15876373 CC+CT carriers of minor allele",0.9708
same,OR for Het,"pravastatin vs placebo, hCV15876373 CT heterozygotes",0.8241
same,OR for major hom,"pravastatin vs placebo, hCV15876373 TT major homozygotes",0.6881
same,OR for major hom,"pravastatin vs placebo, hCV29649182 CC major homozygotes",0.7223
same,OR for Het,"pravastatin vs placebo, hCV29649182 TC heterozygotes",0.7631
same,OR for minor hom,"pravastatin vs placebo, hCV29649182 TT minor homozygotes",1.7333
same,OR for carrier (Min + Het),"pravastatin vs placebo, hCV29649182 TT+TC carriers of minor allele",0.7818
same,OR for minor hom,"pravastatin vs placebo, hCV30388472 CC minor homozygotes",0.5175
same,OR for carrier (Min + Het),"pravastatin vs placebo, hCV30388472 CC+CT carriers of minor allele",0.6291
same,OR for Het,"pravastatin vs placebo, hCV30388472 CT heterozygotes",0.6798
same,OR for major hom,"pravastatin vs placebo, hCV30388472 TT major homozygotes",1.0182
same,OR for carrier (Min + Het),"pravastatin vs placebo, hCV30478067 AA+AG carriers of minor allele",0.6875
same,OR for Het,"pravastatin vs placebo, hCV30478067 AG heterozygotes",0.5153
same,OR for major hom,"pravastatin vs placebo, hCV30478067 GG major homozygotes",0.7461
same,OR for carrier (Min + Het),"pravastatin vs placebo, hCV31340487 CC+CT carriers of minor allele",1.1573
same,OR for Het,"pravastatin vs placebo, hCV31340487 CT heterozygotes",1.0761
same,OR for major hom,"pravastatin vs placebo, hCV31340487 TT major homozygotes",0.697
same,OR for carrier (Min + Het),"pravastatin vs placebo, hCV32202303 CC+CG carriers of minor allele",0.5857
same,OR for Het,"pravastatin vs placebo, hCV32202303 CG heterozygotes",0.6208
same,OR for major hom,"pravastatin vs placebo, hCV32202303 GG major homozygotes",0.7655
same,patients who had experienced another MI,"whole pravastatin-treated group, 5 years of follow-up",114 patients
